Laboratory results published in PubChem BioAssay (NCI).
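48-hour exposure; five concentrations; linearly interpolated endpoints. At the GI50, growth is halved. TGI is the concentration that stops growth completely.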

Key:
Test in all cases: growth of human tumour cells (NCI), 48 h
[1] = tested on: SK-MEL-28 melanoma
[2] = tested on: NCI-H522 lung
[3] = tested on: CAKI-1 renal
[4] = tested on: HT29 colon
[5] = tested on: HCT-116 colon
[6] = tested on: MOLT-4 leukemia
[7] = tested on: BT-549 breast
[8] = tested on: EKVX NSCLC
[9] = tested on: SK-OV-3 ovarian
[10] = tested on: RXF 393 renal
[11] = tested on: MALME-3M melanoma
[12] = tested on: TK-10 renal
[13] = tested on: SF-539 CNS
[14] = tested on: OVCAR-8 ovarian
[15] = tested on: SN12C renal
[16] = tested on: NCI-H226 lung
[17] = tested on: IGROV1 ovarian
[18] = tested on: SNB-19 CNS
[19] = tested on: CCRF-CEM leukemia
[20] = tested on: COLO 205 colon
[21] = tested on: NCI-H460 lung
[22] = tested on: SF-268 CNS
[23] = tested on: A498 renal
[24] = tested on: SW-620 colon
[25] = tested on: UACC-62 melanoma
[26] = tested on: T-47D breast
[27] = tested on: NCI/ADR-RES ovarian
[28] = tested on: ACHN renal
[29] = tested on: SK-MEL-5 melanoma
[30] = tested on: SR leukemia
[31] = tested on: OVCAR-4 ovarian
[32] = tested on: A549 NSCLC
[33] = tested on: SNB-75 CNS
[34] = tested on: HCC-2998 colon
[35] = tested on: HCT-15 colon
[36] = tested on: MDA-MB-231 breast
[37] = tested on: DU-145 prostate
[38] = tested on: HL-60(TB) leukemia
[39] = tested on: U251 CNS
[40] = tested on: HS 578T breast
[41] = tested on: UO-31 renal
[42] = tested on: NCI-H23 lung
[43] = tested on: RPMI-8226 leukemia
[44] = tested on: HOP-62 NSCLC
[45] = tested on: MDA-MB-435
[46] = tested on: OVCAR-3 ovarian
[47] = tested on: LOX IMVI melanoma
[48] = tested on: MCF7 breast
[49] = tested on: SF-295 CNS
[50] = tested on: SK-MEL-2 melanoma
[51] = tested on: HOP-92 NSCLC
[52] = tested on: UACC-257 melanoma
[53] = tested on: K-562 leukemia
[54] = tested on: OVCAR-5 ovarian
[55] = tested on: KM12 colon
[56] = tested on: 786-0 renal
[57] = tested on: M14 melanoma
[58] = tested on: PC-3 prostate

Structure (SMILES): O=C(N/N=C/c1ccc([N+](=O)[O-])s1)c1[nH]c2ccc(Br)cc2c1-c1ccccc1
- GI50 [1]: 995 nM
- TGI [1]: > 34200 nM
- GI50 [2]: 115 nM
- TGI [2]: 535 nM
- GI50 [3]: 1510 nM
- TGI [3]: > 26100 nM
- GI50 [4]: 858 nM
- TGI [4]: 2800 nM
- GI50 [5]: 816 nM
- TGI [5]: 4700 nM
- GI50 [6]: 1070 nM
- TGI [6]: 16600 nM
- GI50 [7]: 747 nM
- TGI [7]: 2670 nM
- GI50 [8]: 1720 nM
- TGI [8]: 8290 nM
- GI50 [9]: 1690 nM
- TGI [9]: > 53500 nM
- GI50 [10]: 354 nM
- TGI [10]: 9220 nM
- GI50 [11]: 800 nM
- TGI [11]: 4500 nM
- GI50 [12]: 2970 nM
- TGI [12]: > 49800 nM
- GI50 [13]: 515 nM
- TGI [13]: 1510 nM
- GI50 [14]: 756 nM
- TGI [14]: 2080 nM
- GI50 [15]: 885 nM
- TGI [15]: 3130 nM
- GI50 [16]: 716 nM
- TGI [16]: 2780 nM
- GI50 [17]: 932 nM
- TGI [17]: > 50900 nM
- GI50 [18]: 961 nM
- TGI [18]: > 32300 nM
- GI50 [19]: 1220 nM
- TGI [19]: 99600 nM
- GI50 [20]: 578 nM
- TGI [20]: 1140 nM
- GI50 [21]: 820 nM
- TGI [21]: 3030 nM
- GI50 [22]: 1840 nM
- TGI [22]: > 100000 nM
- GI50 [23]: > 34700 nM
- TGI [23]: > 92100 nM
- GI50 [24]: 768 nM
- TGI [24]: 8530 nM
- GI50 [25]: 401 nM
- TGI [25]: 3980 nM
- GI50 [26]: 2350 nM
- TGI [26]: > 91300 nM
- GI50 [27]: 458 nM
- GI50 [28]: 883 nM
- GI50 [29]: 605 nM
- TGI [29]: 1290 nM
- GI50 [30]: 391 nM
- TGI [30]: 10600 nM
- GI50 [31]: 1630 nM
- TGI [31]: > 46900 nM
- GI50 [32]: 1070 nM
- TGI [32]: 12900 nM
- GI50 [33]: 320 nM
- TGI [33]: 5710 nM
- GI50 [34]: 787 nM
- TGI [34]: 2120 nM
- GI50 [35]: 706 nM
- TGI [35]: 2720 nM
- GI50 [36]: 881 nM
- TGI [36]: 2850 nM
- GI50 [37]: 1140 nM
- TGI [37]: > 55400 nM
- GI50 [38]: 723 nM
- TGI [38]: 1940 nM
- GI50 [39]: 716 nM
- TGI [39]: 3030 nM
- GI50 [40]: 943 nM
- TGI [40]: 12900 nM
- GI50 [41]: 1040 nM
- TGI [41]: > 33400 nM
- GI50 [42]: 1180 nM
- TGI [42]: 18800 nM
- GI50 [43]: 912 nM
- TGI [43]: 8560 nM
- GI50 [44]: 1070 nM
- TGI [44]: 6970 nM
- GI50 [45]: 323 nM
- TGI [45]: 918 nM
- GI50 [46]: 1060 nM
- TGI [46]: 9860 nM
- GI50 [47]: 487 nM
- TGI [47]: 12700 nM
- GI50 [48]: 741 nM
- TGI [48]: > 32400 nM
- GI50 [49]: 596 nM
- TGI [49]: 12200 nM
- GI50 [50]: 769 nM
- TGI [50]: 2540 nM
- GI50 [51]: 851 nM
- TGI [51]: 4610 nM
- GI50 [52]: 916 nM
- TGI [52]: 9150 nM
- GI50 [53]: 365 nM
- TGI [53]: 14200 nM
- GI50 [54]: 1140 nM
- TGI [54]: 27200 nM
- GI50 [55]: 1080 nM
- TGI [55]: 5470 nM
- GI50 [56]: 1300 nM
- TGI [56]: 19200 nM
- GI50 [57]: 627 nM
- TGI [57]: 2030 nM
- GI50 [58]: 967 nM
